Patent US12343326B2, “Psychoactive medicines and their use for treating psychiatric and neurological conditions and disorders” (Transcend Therapeutics, Inc., priority 2021, dated 2025)

Columns and labels:
Assay in all cases: β-arrestin based GPCR screen (PathHunter / GPCRmax), antagonist mode
168 GPCRs [1] = biological target: 168 GPCRs (Homo sapiens, UniProt Q8TCW9)
168 GPCRs [2] = biological target: 168 GPCRs (Homo sapiens, UniProt P50391)
168 GPCRs [3] = biological target: 168 GPCRs (Homo sapiens, UniProt P33032); conditions: MC5R
168 GPCRs (Homo sapiens, UniProt P33032), sequence (P33032 whole entry): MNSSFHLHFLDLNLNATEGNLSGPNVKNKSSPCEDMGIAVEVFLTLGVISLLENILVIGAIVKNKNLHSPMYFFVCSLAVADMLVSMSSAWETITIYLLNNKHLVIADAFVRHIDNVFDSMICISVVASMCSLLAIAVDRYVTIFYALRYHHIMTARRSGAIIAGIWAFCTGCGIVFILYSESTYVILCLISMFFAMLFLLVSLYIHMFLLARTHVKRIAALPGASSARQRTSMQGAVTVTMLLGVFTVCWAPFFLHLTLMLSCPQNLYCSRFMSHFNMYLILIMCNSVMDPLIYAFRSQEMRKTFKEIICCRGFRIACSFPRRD

168 GPCRs [4] = biological target: 168 GPCRs (Homo sapiens, UniProt Q969F8); conditions: KISS1R
168 GPCRs [5] = biological target: 168 GPCRs (Homo sapiens, UniProt P28336); conditions: NMBR
168 GPCRs (Homo sapiens, UniProt P28336), sequence (P28336 whole entry): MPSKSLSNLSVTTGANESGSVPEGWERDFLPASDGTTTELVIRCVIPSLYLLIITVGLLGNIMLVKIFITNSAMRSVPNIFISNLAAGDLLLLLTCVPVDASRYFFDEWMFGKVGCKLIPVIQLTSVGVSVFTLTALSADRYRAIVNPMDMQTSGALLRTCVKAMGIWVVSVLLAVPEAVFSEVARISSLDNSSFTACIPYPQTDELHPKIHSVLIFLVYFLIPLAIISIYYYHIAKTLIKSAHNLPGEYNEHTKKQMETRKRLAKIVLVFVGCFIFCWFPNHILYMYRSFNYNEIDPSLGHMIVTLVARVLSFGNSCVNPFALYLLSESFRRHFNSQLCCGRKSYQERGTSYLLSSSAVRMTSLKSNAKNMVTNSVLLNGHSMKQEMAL

168 GPCRs [6] = biological target: 168 GPCRs (Homo sapiens, UniProt P32238); conditions: CCKAR, Antagonist
168 GPCRs (Homo sapiens, UniProt P32238), sequence (P32238 whole entry): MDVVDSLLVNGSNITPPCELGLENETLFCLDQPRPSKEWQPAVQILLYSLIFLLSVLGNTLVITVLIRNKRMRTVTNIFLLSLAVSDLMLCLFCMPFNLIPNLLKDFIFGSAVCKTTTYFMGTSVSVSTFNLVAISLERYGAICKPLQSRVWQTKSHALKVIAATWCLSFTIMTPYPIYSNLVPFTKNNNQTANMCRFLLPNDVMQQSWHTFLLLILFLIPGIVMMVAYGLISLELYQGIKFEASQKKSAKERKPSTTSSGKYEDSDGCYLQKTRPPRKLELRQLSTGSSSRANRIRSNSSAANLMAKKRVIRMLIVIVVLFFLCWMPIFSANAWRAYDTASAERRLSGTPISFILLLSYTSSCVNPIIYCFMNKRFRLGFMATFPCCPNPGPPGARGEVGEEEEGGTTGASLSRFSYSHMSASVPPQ

168 GPCRs [7] = biological target: T1, 168 GPCRs (Homo sapiens, UniProt Q5NUL3)
T1 sequence (Q5NUL3 1-361): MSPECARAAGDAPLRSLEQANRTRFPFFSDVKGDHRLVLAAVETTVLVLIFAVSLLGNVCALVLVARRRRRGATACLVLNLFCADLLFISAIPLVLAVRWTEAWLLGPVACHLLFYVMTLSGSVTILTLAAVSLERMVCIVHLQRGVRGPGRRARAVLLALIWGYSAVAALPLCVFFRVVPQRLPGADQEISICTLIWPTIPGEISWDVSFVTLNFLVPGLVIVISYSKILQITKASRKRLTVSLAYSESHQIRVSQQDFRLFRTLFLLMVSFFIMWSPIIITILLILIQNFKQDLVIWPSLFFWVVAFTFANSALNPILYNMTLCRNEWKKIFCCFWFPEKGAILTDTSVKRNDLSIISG

168 GPCRs [8] = biological target: 168 GPCRs (Homo sapiens, UniProt O43613)
168 GPCRs (Homo sapiens, UniProt O43613), sequence (O43613 whole entry): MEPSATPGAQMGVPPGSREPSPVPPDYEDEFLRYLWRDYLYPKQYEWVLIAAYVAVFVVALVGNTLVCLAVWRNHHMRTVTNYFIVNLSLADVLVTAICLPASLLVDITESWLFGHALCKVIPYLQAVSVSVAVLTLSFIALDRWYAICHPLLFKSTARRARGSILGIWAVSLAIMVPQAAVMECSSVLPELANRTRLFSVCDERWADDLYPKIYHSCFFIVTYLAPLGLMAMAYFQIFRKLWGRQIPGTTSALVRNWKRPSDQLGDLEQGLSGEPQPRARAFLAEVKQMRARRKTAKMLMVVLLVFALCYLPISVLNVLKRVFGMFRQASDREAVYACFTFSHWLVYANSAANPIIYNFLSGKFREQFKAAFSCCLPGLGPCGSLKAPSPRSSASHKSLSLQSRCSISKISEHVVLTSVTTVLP

168 GPCRs [9] = biological target: 168 GPCRs (Homo sapiens, UniProt Q99500)
168 GPCRs (Homo sapiens, UniProt Q99500), sequence (Q99500 whole entry): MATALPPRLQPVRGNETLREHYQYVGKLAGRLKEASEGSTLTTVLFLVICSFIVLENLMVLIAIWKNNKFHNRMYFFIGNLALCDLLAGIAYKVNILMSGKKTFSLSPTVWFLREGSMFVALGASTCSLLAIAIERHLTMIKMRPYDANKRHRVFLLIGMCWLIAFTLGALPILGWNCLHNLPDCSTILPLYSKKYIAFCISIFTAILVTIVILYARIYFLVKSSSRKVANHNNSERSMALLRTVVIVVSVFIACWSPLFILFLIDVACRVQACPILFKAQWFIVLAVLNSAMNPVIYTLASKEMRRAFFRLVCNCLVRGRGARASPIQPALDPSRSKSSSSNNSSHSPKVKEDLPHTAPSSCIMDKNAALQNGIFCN

168 GPCRs [10] = biological target: 168 GPCRs (Homo sapiens, UniProt P18089); conditions: ADRA2B, Antagonist
168 GPCRs [11] = biological target: T2, 168 GPCRs (Homo sapiens, UniProt P24530); conditions: EDNRB
T2 sequence (P24530 27-442): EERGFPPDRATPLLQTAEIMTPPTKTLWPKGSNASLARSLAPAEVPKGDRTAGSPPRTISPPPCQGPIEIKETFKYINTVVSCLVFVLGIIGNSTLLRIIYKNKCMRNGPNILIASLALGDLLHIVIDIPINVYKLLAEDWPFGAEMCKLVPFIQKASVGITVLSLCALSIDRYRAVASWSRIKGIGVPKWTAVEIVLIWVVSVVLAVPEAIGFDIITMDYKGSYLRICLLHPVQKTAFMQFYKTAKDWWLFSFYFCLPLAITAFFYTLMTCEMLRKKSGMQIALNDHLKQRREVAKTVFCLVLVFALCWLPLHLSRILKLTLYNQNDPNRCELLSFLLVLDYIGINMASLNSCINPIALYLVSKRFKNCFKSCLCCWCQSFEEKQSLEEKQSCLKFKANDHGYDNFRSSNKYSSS

168 GPCRs [12] = biological target: 168 GPCRs (Homo sapiens, UniProt Q15077)
168 GPCRs (Homo sapiens, UniProt Q15077), sequence (Q15077 whole entry): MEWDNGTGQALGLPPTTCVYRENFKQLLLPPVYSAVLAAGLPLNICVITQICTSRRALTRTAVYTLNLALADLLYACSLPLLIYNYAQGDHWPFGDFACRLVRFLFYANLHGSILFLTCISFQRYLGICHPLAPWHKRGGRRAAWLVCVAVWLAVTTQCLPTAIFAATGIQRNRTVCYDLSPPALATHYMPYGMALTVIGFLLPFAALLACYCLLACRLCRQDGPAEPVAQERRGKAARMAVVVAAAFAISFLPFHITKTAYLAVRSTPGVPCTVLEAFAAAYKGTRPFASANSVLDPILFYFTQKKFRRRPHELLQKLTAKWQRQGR

168 GPCRs [13] = biological target: 168 GPCRs (Homo sapiens, UniProt P25116); conditions: F2F, Antagonist mode, 10 uM
168 GPCRs [14] = biological target: 168 GPCRs (Homo sapiens, UniProt O43193); conditions: MLNR
168 GPCRs (Homo sapiens, UniProt O43193), sequence (O43193 whole entry): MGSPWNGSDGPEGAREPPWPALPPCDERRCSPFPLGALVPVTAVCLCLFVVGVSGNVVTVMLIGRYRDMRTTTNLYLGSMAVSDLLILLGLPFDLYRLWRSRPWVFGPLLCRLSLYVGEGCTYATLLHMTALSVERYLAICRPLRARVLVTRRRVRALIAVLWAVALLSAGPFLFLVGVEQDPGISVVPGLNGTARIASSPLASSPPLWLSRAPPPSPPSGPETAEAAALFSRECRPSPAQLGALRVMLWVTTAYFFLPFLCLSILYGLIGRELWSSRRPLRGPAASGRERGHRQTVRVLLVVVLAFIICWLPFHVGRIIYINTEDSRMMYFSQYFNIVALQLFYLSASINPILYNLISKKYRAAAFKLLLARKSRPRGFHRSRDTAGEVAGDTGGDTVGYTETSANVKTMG

168 GPCRs [15] = biological target: 168 GPCRs (Homo sapiens, UniProt Q9GZQ6)
168 GPCRs (Homo sapiens, UniProt Q9GZQ6), sequence (Q9GZQ6 whole entry): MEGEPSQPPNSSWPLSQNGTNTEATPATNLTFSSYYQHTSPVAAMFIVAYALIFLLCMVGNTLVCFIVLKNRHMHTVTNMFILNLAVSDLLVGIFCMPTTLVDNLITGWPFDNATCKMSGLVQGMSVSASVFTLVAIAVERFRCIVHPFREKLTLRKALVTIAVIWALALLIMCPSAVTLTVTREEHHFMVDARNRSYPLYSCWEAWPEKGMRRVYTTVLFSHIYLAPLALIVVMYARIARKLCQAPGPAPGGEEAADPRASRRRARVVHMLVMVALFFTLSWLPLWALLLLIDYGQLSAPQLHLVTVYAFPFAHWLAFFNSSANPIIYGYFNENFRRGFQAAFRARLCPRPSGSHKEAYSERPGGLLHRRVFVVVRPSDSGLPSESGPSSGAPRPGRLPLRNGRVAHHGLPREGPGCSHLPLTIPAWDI

168 GPCRs [16] = biological target: 168 GPCRs (Homo sapiens, UniProt Q969V1)
168 GPCRs (Homo sapiens, UniProt Q969V1), sequence (Q969V1 whole entry): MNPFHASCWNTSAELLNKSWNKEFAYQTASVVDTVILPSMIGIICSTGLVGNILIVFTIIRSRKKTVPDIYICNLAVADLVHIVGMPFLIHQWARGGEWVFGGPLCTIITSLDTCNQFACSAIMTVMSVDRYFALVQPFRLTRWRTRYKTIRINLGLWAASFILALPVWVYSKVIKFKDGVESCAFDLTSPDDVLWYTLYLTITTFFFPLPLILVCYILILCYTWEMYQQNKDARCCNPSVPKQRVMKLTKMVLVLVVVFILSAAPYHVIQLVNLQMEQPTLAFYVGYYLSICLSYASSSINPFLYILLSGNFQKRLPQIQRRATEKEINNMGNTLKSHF

168 GPCRs [17] = biological target: 168 GPCRs (Homo sapiens, UniProt Q99705)
168 GPCRs (Homo sapiens, UniProt Q99705), sequence (Q99705 whole entry): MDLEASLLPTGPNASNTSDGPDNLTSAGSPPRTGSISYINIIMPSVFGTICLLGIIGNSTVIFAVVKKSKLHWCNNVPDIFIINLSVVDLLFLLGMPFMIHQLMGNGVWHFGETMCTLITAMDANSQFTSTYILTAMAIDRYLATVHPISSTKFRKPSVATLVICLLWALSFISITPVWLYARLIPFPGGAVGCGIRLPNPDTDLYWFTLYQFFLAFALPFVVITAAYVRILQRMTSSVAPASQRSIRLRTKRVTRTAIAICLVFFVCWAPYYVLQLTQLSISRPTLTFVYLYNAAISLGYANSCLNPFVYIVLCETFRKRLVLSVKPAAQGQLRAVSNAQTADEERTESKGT

168 GPCRs (Homo sapiens, UniProt P50391), sequence (P50391 whole entry): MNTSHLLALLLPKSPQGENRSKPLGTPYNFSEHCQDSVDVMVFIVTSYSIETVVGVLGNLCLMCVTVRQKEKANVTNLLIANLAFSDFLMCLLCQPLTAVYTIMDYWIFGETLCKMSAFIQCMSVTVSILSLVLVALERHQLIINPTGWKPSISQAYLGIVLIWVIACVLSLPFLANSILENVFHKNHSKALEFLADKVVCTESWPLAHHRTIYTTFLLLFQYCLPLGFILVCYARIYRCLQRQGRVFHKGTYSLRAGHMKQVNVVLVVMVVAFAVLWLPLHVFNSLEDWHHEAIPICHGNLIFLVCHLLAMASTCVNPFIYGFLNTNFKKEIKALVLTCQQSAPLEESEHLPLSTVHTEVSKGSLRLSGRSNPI
168 GPCRs (Homo sapiens, UniProt Q8TCW9), sequence (Q8TCW9 whole entry): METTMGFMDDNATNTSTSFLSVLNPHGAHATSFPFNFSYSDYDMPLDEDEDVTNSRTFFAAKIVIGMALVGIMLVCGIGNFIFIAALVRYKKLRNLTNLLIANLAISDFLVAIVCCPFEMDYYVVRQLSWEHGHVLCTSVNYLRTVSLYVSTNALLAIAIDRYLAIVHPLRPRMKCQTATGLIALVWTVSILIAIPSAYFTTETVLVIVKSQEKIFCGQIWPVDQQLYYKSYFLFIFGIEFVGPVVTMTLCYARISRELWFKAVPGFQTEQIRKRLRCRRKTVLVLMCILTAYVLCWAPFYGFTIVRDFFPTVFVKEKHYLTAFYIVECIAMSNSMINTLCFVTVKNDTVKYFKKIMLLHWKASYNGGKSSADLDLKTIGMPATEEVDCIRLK

CNC(C)C(=O)c1ccc2c(c1)OCO2 (stereo not drawn) [methylone, 3,4-methylenedioxy-N-methylcathinone]
activity at 10 µM (168 GPCRs [1]; PROKR1, Antagonist mode, 10 uM): 3.3%
% Activity (168 GPCRs [1]; PROKR1, Antagonist): 8.7%
activity at 10 µM (168 GPCRs [2]; PPYR1, Antagonist mode, 10 uM): 6.5%
activity at 1 µM (168 GPCRs [2]; PPYR1, Antagonist, 1 uM): 9.5%
activity at 10 µM (168 GPCRs [3]; Antagonist mode, 10 uM): -6.3%
activity at 1 µM (168 GPCRs [3]; Antagonist, 1 uM): 1.7%
activity at 10 µM (168 GPCRs [4]; Antagonist mode, 10 uM): 14.5%
activity at 1 µM (168 GPCRs [4]; Antagonist, 1 uM): 28.7%
activity at 10 µM (168 GPCRs [5]; Antagonist mode, 10 uM): 13.2%
activity at 1 µM (168 GPCRs [5]; Antagonist, 1 uM): 10.3%
activity at 1 µM (168 GPCRs [6]; 1 uM): -4.3%
activity at 10 µM (168 GPCRs [6]; 10 uM): -3.3%
activity at 10 µM (168 GPCRs [7]; GPR120, Antagonist mode, 10 uM): 40.3%
activity at 1 µM (168 GPCRs [7]; GPR120, Antagonist, 1 uM): 46.5%
activity at 10 µM (168 GPCRs [8]; HCRTR1, Antagonist mode, 10 uM): 1.2%
activity at 1 µM (168 GPCRs [8]; HCRTR1, Antagonist, 1 uM): 2.3%
activity at 10 µM (168 GPCRs [9]; EDG3, Antagonist mode, 10 uM): 13.6%
activity at 1 µM (168 GPCRs [9]; EDG3, Antagonist, 1 uM): 25.8%
activity at 1 µM (168 GPCRs [10]; 1 uM): 8.5%
activity at 10 µM (168 GPCRs [10]; 10 uM): 6.3%
activity at 10 µM (168 GPCRs [11]; Antagonist mode, 10 uM): 10.9%
activity at 1 µM (168 GPCRs [11]; Antagonist, 1 uM): 17.5%
activity at 10 µM (168 GPCRs [12]; P2RY6, Antagonist mode, 10 uM): 2.6%
activity at 1 µM (168 GPCRs [12]; P2RY6, Antagonist, 1 uM): 6.5%
activity at 10 µM (168 GPCRs [13]): -11.4%
activity at 10 µM (168 GPCRs [14]; Antagonist mode, 10 uM): 12.3%
activity at 1 µM (168 GPCRs [14]; Antagonist, 1 uM): 15.6%
activity at 10 µM (168 GPCRs [15]; NPFFR1, Antagonist mode, 10 uM): 27.1%
activity at 1 µM (168 GPCRs [15]; NPFFR1, Antagonist, 1 uM): 32%
activity at 10 µM (168 GPCRs [16]; MCHR2, Antagonist mode, 10 uM): -4.5%
activity at 1 µM (168 GPCRs [16]; MCHR2, Antagonist, 1 uM): 2%
activity at 10 µM (168 GPCRs [17]; MCHR1, Antagonist mode, 10 uM): -18.3%
activity at 1 µM (168 GPCRs [17]; MCHR1, Antagonist, 1 uM): -12.2%
